Series [1] is described as follows: Plasma and brain pharmacokinetics after intraperitoneal administration. The note with it: for Brain/Plasma ratio AUC0-inf / Brain/Plasma ratio Cmax: assumes brain density 1 g/ml.
The nature of series [2]: Monitoring for sedation via physical observation. It is filed as in vivo, mouse. The note with it: all mice treated with CBD (70-150 mg/kg with CLB 5 + VPA 75 mg/kg ip).
The nature of the next series: Core body temperature. It is filed as in vivo, mouse. The note with it: all mice treated with CBD (with CLB + VPA) ip.
Series [3] concerns hyperthermia-induced seizures in Scn1a^A1783V/WT mice. The note with it: cited from earlier work.
A short description of another series: in vivo. The note with it: Scn1a^WT/WT (wild-type), mouse, ip.
For series [4] the following is noted: mouse, in vivo.
For series [5] the following is noted: comedication with CLB; cited from earlier work.
Where [6] appears, read: Single Drug, each alone ip, Scn1a^WT/WT mice.
Setting [7] is: Triple (CLB+VPA+CBD) ip, Scn1a^WT/WT mice.
The mark [8] stands for this setting: Double (CLB+VPA) ip, Scn1a^WT/WT mice.

Where two headings read alike, the source gives them in different places. Bounds are passed on as bounds.

As for `C=C(C)[C@@H]1CCC(CO)=C[C@H]1c1c(O)cc(CCCCC)cc1O` [7-OH-CBD, 7-hydroxycannabidiol], in series [1] (setting [6]), the “Brain/Plasma ratio AUC0-inf” value is reported as 0.82 and the “Brain/Plasma ratio Cmax” value is given as 0.93. In addition, in series [1] (setting [7]), the “Brain/Plasma ratio AUC0-inf” value came out at 1.02 and the “Brain/Plasma ratio Cmax” value turned out to be 0.86.

As for `C=C(C)[C@@H]1CCC(C)=C[C@H]1c1c(O)cc(CCCCC)cc1O` [CBD, cannabidiol], the Signs of sedation result in series [2] is given as “No signs of sedation”. The “Increase in brain exposure, CBD+CLB+VPA compared to CBD monotherapy” value in series [1] (mouse, in vivo) is recorded as “two-fold”. In addition, in “Core body temperature”, the “Post-injection core body temperature compared to baseline pre-injection” value is recorded as “reduction in post-injection core body temperatures”.

With `CN1C(=O)CC(=O)N(c2ccccc2)c2cc(Cl)ccc21` [CLB, clobazam], in series [1] (Scn1a^WT/WT mice), the “Exposure (AUC0-inf), triple-drug therapy (CLB+VPA+STP) vs CLB alone or CLB + VPA” value is on record as “substantially higher”. In addition, the “CLB stand-alone PK in Scn1a^A1783V/WT vs Scn1a^WT/WT mice” value in series [1] (Table S2) is “comparable PK profile”. The “Exposure when adding CBD to CLB+VPA vs adding STP to CLB+VPA” value in series [1] (mouse, in vivo) was “higher”. Besides, the “Brain Cmax, triple-drug therapy (CLB+VPA+STP) vs CLB alone and CLB + VPA” value in series [1] (p<0.0001 vs CLB alone, p=0.0003 vs CLB + VPA) is “significantly higher”.

In the case of `CCNC(C)Cc1cccc(C(F)(F)F)c1` (stereo not drawn) [FFA, fenfluramine], the “Protection against hyperthermia-induced seizures” value (from here on “Protection”) in series [3] (FFA 25 mg/kg alone) is “insufficient to prevent hyperthermia-induced seizures”.

As to `C[C@H]1CNCCc2ccc(Cl)cc21` [LCS, Lorcaserin], the “Protection” value in series [3] (LCS 10 mg/kg alone) is on record as “insufficient to prevent hyperthermia-induced seizures”.

On to `O=C1CC(=O)N(c2ccccc2)c2cc(Cl)ccc2N1` [N-CLB, N-desmethylclobazam], for which the “Brain/Plasma ratio AUC0-inf” value in series [1] (setting [8]) was determined as 1.42; in series [1] (setting [6]) it was 2.1; in series [1] (setting [7]), 1.56; in series [1] (Triple (CLB+VPA+STP) ip, Scn1a^WT/WT mice) it was 2.29. In addition, the entries for the “Brain/Plasma ratio Cmax” value in series [1] (setting [8]), in series [1] (setting [6]) and in series [1] (setting [7]) were 1.39, 1.25 and 1.2, respectively. The “Exposure when adding CBD to CLB+VPA vs adding STP to CLB+VPA” value in series [1] (mouse, in vivo) was “higher”. Also, in series [1] (mouse, in vivo), the “Fold increase of concentrations in triple-drug therapies compared to CLB+VPA” value is listed as above 2 fold.

On to `CC(C)(C)C(O)/C=C/c1ccc2c(c1)OCO2` (stereo not drawn) [STP, stiripentol], for which, in the series “in vivo”, the half-life was 52.1 min. In addition, the “Protection” value in series [3] (STP 100 mg/kg alone) was “ineffective”. For the same compound, in series [4], the “Brain Cmax, CLB + VPA + STP cohort vs STP alone” value is on record as “not different”. The “Increase of STP concentration by CLB” value in series [5] is 37%.

As to `CCCC(CCC)C(=O)O` [VPA, sodium valproate], the “Brain exposure in CBD+CLB+VPA compared to CLB+VPA or VPA-alone” value in series [4] was “increase”.

Broadly, the half-life is how long it takes for the measured level to halve. Low readings indicate rapid decline, high ones slow decline.

(Values after paper PMC11496002 (Epilepsia, 2024).)
